Results on 45 substances are retold here after paper PMC8769072, “Proteome‐scale mapping of binding sites in the unstructured regions of the human proteome” (Molecular Systems Biology, 2022).

For the experiment, the system named is immobilized GST-tagged bait protein domains. Kind of experiment: ProP-PD phage selections (HD2 P8, sublibraries, HD2 P3, HD1 P8) with NGS and confidence level. It counts as binding, human.
Setting [1] is: bait ANKRA2_Ank__Q9H9E1_142_313, library HD.
Where [2] appears, read: bait ANKRA2_Ank__Q9H9E1_142_313, library HD, mean normalised NGS counts.
Setting [3] is: bait ANKRA2_Ank__Q9H9E1_142_313, library HD, mean raw NGS counts, all selections.
Setting [4] is: bait SIN3A_PAH__Q96ST3_295_383, HD2 library, whether the validated benchmark motif instance was recovered in the ProP-PD selection (TRUE/FALSE).
[5] abbreviates: library HD2, bait KLC1_TPR__Q07866_203_497, whether the validated benchmark motif instance was recovered in the ProP-PD selection (TRUE/FALSE).
[6] abbreviates: HD2 library, bait SUMO1_SUMO__P63165_1_101, known motif instance of the benchmarking set found (TRUE) or not found (FALSE) among selected peptides.
[7] abbreviates: bait AP2B1_adaptin__P63010_700_937, library HD2, benchmarking set of validated motif instances, TRUE = motif instance recovered in the ProP-PD selection.
Setting [8] is: bait PABP-B_PABP__P11940_544_623, HD2 library, whether the validated benchmark motif instance was recovered in the ProP-PD selection (TRUE/FALSE).
Where [9] appears, read: bait KPNA4_Arm (O00629 68-487), HD2 library, benchmark motif instance recovered in the ProP-PD selection (TRUE/FALSE).
Where [10] appears, read: bait SUMO1_SUMO__P63165_1_101, HD2 library, confidence level (1-4) of best matching selected peptide.
Where [11] appears, read: bait SUMO1_SUMO__P63165_1_101, HD2 library, specificity score of best matching selected peptide.
Setting [12] is: bait SUMO1_SUMO__P63165_1_101, HD2 library, whether the validated benchmark motif instance was recovered in the ProP-PD selection (TRUE/FALSE).
Where [13] appears, read: library HD2, bait EIF4E_eIF4E__P06730_1_217, whether the validated benchmark motif instance was recovered in the ProP-PD selection (TRUE/FALSE).
Setting [14] is: library HD2, bait EPS15_EH__P42566_121_215, whether the validated benchmark motif instance was recovered in the ProP-PD selection (TRUE/FALSE).
[15] abbreviates: HD2 library, bait TSG101_UEV__Q99816_1_145, known motif instance of the benchmarking set found (TRUE) or not found (FALSE) among selected peptides.
[16] abbreviates: bait CLTC_Clathrin-propeller__Q00610_1_364, library HD2, benchmarking set of validated motif instances, TRUE = motif instance recovered in the ProP-PD selection.

Consider MSARPSLPPLPAKPAG, for which the HD confidence under setting [1] came to 2. In addition, the HD2 confidence (bait ANKRA2_Ank__Q9H9E1_142_313, library HD2 P8) is 2. Under setting [2], this substance showed an HD count proportions of 0.0001907. In addition, the HD mean counts under setting [3] stood at 3.25.

Turning to MSIETLLEAARFLEWQAQQQ, the motif_found entry under setting [4] is reported as “FALSE”.

MSSLYPSLEDLKVDQA: the HD confidence (bait PDCD6IP_Alix-V-domain__Q8WUM4_360_702, library HD) worked out at 2. Further, where the note is “bait PDCD6IP_Alix-V-domain__Q8WUM4_360_702, library HD2 P3”, the p3_HD2 confidence turned out to be 3. This substance also showed a p3_HD2 count proportions (bait PDCD6IP_Alix-V-domain__Q8WUM4_360_702, library HD2 P3, mean normalised NGS counts) of 0.4191. Besides, the p3_HD2 mean counts (bait PDCD6IP_Alix-V-domain__Q8WUM4_360_702, library HD2 P3, mean raw NGS counts, all selections) was found to be 20392.666666666668. Besides, the HD2 confidence (bait PDCD6IP_Alix-V-domain__Q8WUM4_360_702, library HD2 P8) came out at 4. The same substance displayed an HD2_nc confidence (bait PDCD6IP_Alix-V-domain__Q8WUM4_360_702, library HD2 P8 nucleocytoplasmic) of 3. For the setting “bait PDCD6IP_Alix-V-domain__Q8WUM4_360_702, library HD2 P8 nucleocytoplasmic, mean normalised NGS counts”, this substance returned an HD2_nc count proportions of 0.343. This substance had an HD2_nc mean counts (bait PDCD6IP_Alix-V-domain__Q8WUM4_360_702, library HD2 P8 nucleocytoplasmic, mean raw NGS counts, all selections) of 24438.333333333332. This substance also gave an HD count proportions (bait PDCD6IP_Alix-V-domain__Q8WUM4_360_702, library HD, mean normalised NGS counts) of 0.4404. The substance further showed an HD mean counts (bait PDCD6IP_Alix-V-domain__Q8WUM4_360_702, library HD, mean raw NGS counts, all selections) of 2175.8.

As for NATRQQQLEWDDSTLSY-----, the motif_found entry under setting [5] is recorded as “FALSE”.

Turning to NDIDEVIIPTAPLYKQILNL [TSG101 319-324], the motif_found result (HD2 library, bait TSG101_UEV__Q99816_1_145, benchmark motif instance, in_library_check FALSE, in_library_coverage 0) is “FALSE”.

Take NEEINIASSDSEVEIVGVQEHARC: the motif_found result under setting [6] was “FALSE”.

For NGAEDDDDDEFGEFGGFSEVS [AFTPH], the motif_found entry under setting [7] is reported as “FALSE”.

For the substance NGSSSVNWPPEFRPGEPWKGYPNIDPET, the motif_found result under setting [8] is on record as “FALSE”.

As to NHWQKIRTMVNLPVISPFK [ITPKA 165-183], the motif_found result (HD2 library, bait CALM1_EF-hand__P0DP23_2_149, benchmark motif instance, in_library_check FALSE, in_library_coverage 0) is on record as “FALSE”.

For NIHNSKAPKKNRLRRKSSTR, the motif_found entry under setting [9] is reported as “FALSE”.

NKKVEVIDLTIDSSSD returned a best_confidence under setting [10] of 4. Moreover, the best_specificity under setting [11] worked out at 1. For the same substance, the motif_found result under setting [12] is on record as “TRUE”.

With NLEEKKRYDREFLLGFQFIFA, the motif_found result under setting [13] was “FALSE”.

As to NLNGTIKDDFSEFDNLRTSKKTAE [EPN2], the motif_found entry under setting [7] was “FALSE”.

In the case of NLQLPSLDEQVIPARL, the HD confidence under setting [1] stood at 3. Also, under setting [2], the HD count proportions stood at 0.0005556. Under setting [3], this substance came in with an HD mean counts of 7.75.

For the substance NMTPYRSPPPYVPP----, the motif_found result was “FALSE” (bait NEDD4_WW_4 (P46934 890-928), HD2 library, benchmark motif instance recovered in the ProP-PD selection (TRUE/FALSE)) and “FALSE” (library HD2, bait YAP1_WW_1_P46937_169_207, validated benchmark motif instance, in_library_check TRUE, TRUE/FALSE = instance recovered in ProP-PD selection).

As to NPFLAPGAPATSAPVN, the best_specificity (library HD2, bait EPS15_EH__P42566_121_215, best matching peptide) is 1. Besides, the best_confidence (library HD2, bait EPS15_EH__P42566_121_215, confidence level of best matching peptide (4 High, 2-3 Medium, 1 Low)) is 3. Besides, the motif_found entry under setting [14] is recorded as “TRUE”.

In turn, NPNAKEFVPGVKYGNI gave a best_confidence (bait PABP-B_PABP__P11940_544_623, HD2 library, confidence level (1-4) of best matching selected peptide) of 2. Moreover, the best_specificity (bait PABP-B_PABP__P11940_544_623, HD2 library, specificity score of best matching selected peptide) is reported as 1. Besides, the motif_found result under setting [8] is “TRUE”.

On to NRVAYIEFPPPPPLDADQI, for which the motif_found result (library HD2, bait VASP_EVH1__P50552_1_114, validated benchmark motif instance, in_library_check TRUE, TRUE/FALSE = instance recovered in ProP-PD selection) was “FALSE”.

On to NSVTSTNLEWDDSAIAPSSEDYDF, for which the motif_found entry under setting [5] is recorded as “FALSE”.

Turning to NTPSGKSDDDFADFHSSKFSS [SYNRG], the motif_found result under setting [7] is on record as “FALSE”.

In turn, NVQRLLEAAEFLERRE yielded a best_confidence (bait SIN3A_PAH__Q96ST3_295_383, HD2 library, confidence level (1-4) of best matching selected peptide) of 3. The same substance returned a best_specificity (bait SIN3A_PAH__Q96ST3_295_383, HD2 library, specificity score of best matching selected peptide) of 0.6. Under setting [4], the motif_found entry is on record as “TRUE”.

As to NYCPPVKRERTSSL, the motif_found result under setting [9] is “FALSE”.

For NYPFTWNTPSAPPGYNIAVK, the motif_found result under setting [15] is “FALSE”.

As to PAAAAANELNNNLPGGAPAA, where the note is “bait SPSB1_SPRY__Q96BD6_30_231, HD2 library, whether the validated benchmark motif instance was recovered in the ProP-PD selection (TRUE/FALSE)”, the motif_found entry was “FALSE”.

Substance PAPALPPKPPKPTTVA showed a best_specificity (bait CRK_SH3_1_P46108_124_198, library HD2, best matching peptide) of 1. The substance also yielded a best_confidence (bait CRK_SH3_1_P46108_124_198, library HD2, confidence level of best matching peptide (4 = High, 2 or 3 = Medium, 1 = Low)) of 2.

For PAPAPLPPPSAPSLQPSRKL, the motif_found entry under setting [15] is given as “FALSE”.

On to PATKEISLLDLEDFTPPSV [AP3B2], for which the motif_found entry under setting [16] is on record as “FALSE”.

As to PEISLEAEPIELVETAGDEIVD, the motif_found result under setting [6] is recorded as “FALSE”.

On to PFEEPTCINPFEMDSDSGP, for which the motif_found result under setting [14] is recorded as “FALSE”.

Turning to PFSEQASLLDLDFDPLPPV [BIN1], under setting [16], the motif_found entry is given as “FALSE”.

With PGADVVDLTLDSSSSS, the best_confidence under setting [10] was 2. The best_specificity under setting [11] is given as 1. Further, under setting [12], the motif_found entry is “TRUE”.

Regarding PGGGHPAPSWVAFAHT, the HD2 confidence (bait AP2B1_adaptin__P63010_700_937, HD2 P8 selection, non primary paralogue peptide match, confidence level -4 to 4: 4 = High, 3 or 2 = Medium, 1 = Low, 0 = Filtered/Noise) amounted to 4.

PGGTRIIYDRKFLLDRRNSPM: under setting [13], the motif_found result is on record as “FALSE”.

Consider PGGTRIIYDRKFLLECKNSPI, for which the motif_found entry under setting [13] was “FALSE”.

Regarding PGPPAPNTNPFLL------, under setting [14], the motif_found entry is listed as “FALSE”.

“PGSAPPPQAQGPPYPTYPGYPGYCQ,QAQGPPYPTYPGY [PDCD6IP]”: the motif_found result (bait CEP55_EABR__Q53EZ4_160_217, library HD2, benchmarking set of validated motif instances, TRUE = motif instance recovered in the ProP-PD selection) was “FALSE”.

Consider PIPHDGNLYPRLYPELSQY [SDCBP 45-49], for which, for the setting “HD2 library, bait PDCD6IP_Alix-V-domain__Q8WUM4_360_702, benchmark motif instance, in_library_check FALSE, in_library_coverage 0”, the motif_found entry is reported as “FALSE”.

Under “bait CLTC_Clathrin-propeller__Q00610_1_364, HD2 P8 nucleocytoplasmic sublibrary, confidence level (4 = High, 2-3 = Medium, 1 = Low)”, PLIDLPLIDFCDTPEA gave an HD2_nc confidence of 4. Moreover, under “bait CLTC_Clathrin-propeller__Q00610_1_364, HD2 P8 nucleocytoplasmic sublibrary, mean NGS counts over replicate selections”, the HD2_nc mean counts was determined as 154.7. The same substance yielded an HD2_nc count proportions (bait CLTC_Clathrin-propeller__Q00610_1_364, HD2 P8 nucleocytoplasmic sublibrary, mean proportion of NGS counts) of 0.002602.

Regarding PLTKDVSLLDLDDFNPVST [AP3B1], under setting [16], the motif_found entry was “FALSE”.

Regarding PLYTSPSLPNITLGLP, the best_specificity (bait ANKRA2_Ank__Q9H9E1_142_313, library HD2, best matching peptide) is 1. Where the note is “bait ANKRA2_Ank__Q9H9E1_142_313, library HD2, confidence level of best matching peptide (4 = High, 2 or 3 = Medium, 1 = Low)”, this substance gave a best_confidence of 3.

As to PMLPDLTLEAWPSTDK, under “library HD, bait ANKRA2_Ank__Q9H9E1_142_313, ProP-PD peptides with disease-related mutations”, the confidence is 3.

As for PPAEEPEARPDGEGSPGKARPG, the motif_found entry (HD2 library, bait TNKS_TANK-peptide-bind__O95271_174_649, known motif instance of the benchmarking set found (TRUE) or not found (FALSE) among selected peptides) was “FALSE”.

On to PPAGLNSSWVELPMNSSNG, for which the motif_found entry (bait MAP1LC3B_ATG8 (Q9GZQ8 2-119), HD2 library, benchmark motif instance recovered in the ProP-PD selection (TRUE/FALSE)) was “FALSE”.

Turning to PPAPVNDEPIVIED-------, the motif_found entry under setting [6] was “FALSE”.

Take PPDTKLSKLDVLLLAT: the HD2_nucleus confidence (bait SIN3A_PAH__Q96ST3_295_383, library HD2 P8 nucleus) is listed as 4.
